Consider 33 molecules from patent US9499493B2, “2,4-pyrimidinediamine compounds and their uses” (Rigel Pharmaceuticals, Inc., priority 2002, dated 2016).

SMILES strings stand for the structures. pIC50: −log10 of the molar value.

Test [1] relates to cultured human mast cells (CHMC). In words: CHMC low cell density ionomycin activation: tryptase assay. The class given is cell-based.
For test [2] the test system is unchanged. In words: CHMC low cell density IgE activation: tryptase assay. It is filed as cell-based. To be noted: anti-IgE. The method in brief: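 Read-out: tryptase released into supernatant, measured by substrate turnover over 30 min at RT. Low-density CHMC (1000-1500 cells/well, per donor degranulation activity) in MT buffer, 1 hr at 37° C, then anti-IgE challenge 30 min at 37° C.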

For `CCOC(=O)CNC(=O)Nc1c(Nc2ccc(OCC(=O)OCC)cc2)nc(Nc2ccc(OCC(=O)OCC)cc2)nc1C(=O)OCC` [R926587, N2,N4-Bis(4-ethoxycarbonylmethyleneoxyphenyl)-6-ethoxycarbonyl-5-(ethoxycarbonylmethyleneaminocarbonylamino)-2,4-pyrimidinediamine], the negative-log IC50 (pIC50) in test [1] and in test [2] was less than 5.00 in each case.
For `Cn1nnnc1COc1ccc(Nc2ncc(F)c(Nc3cccc(O)c3)n2)cc1` [R920860, 5-Fluoro-N4-(3-hydroxyphenyl)-N2-[4-(1-methyl-1,2,3,4-tetrazol-5-yl)methyleneoxyphenyl]-2,4-pyrimidineamine], the figures for the pIC50 in test [1] and in test [2] were less than 5.00 and 6.00, respectively.
With `CNC(=O)COc1cccc(Nc2ncc(F)c(Nc3ccc(OC)c(C(F)(F)F)c3)n2)c1` [R926835, 5-Fluoro-N4-(4-methoxy-3-trifluoromethylphenyl)-N2-[3-(N-methylamino)carbonylmethyleneoxyphenyl]-2,4-pyrimidinediamine], the pIC50 (usually the negative decadic logarithm of the IC50, by convention in mol/L) was less than 5.00 in test [1] and 6.53 in test [2].
Taken in the same sequence, the figures for `COC(=O)COc1ccc(Nc2nc(Nc3ccc(OCC#N)cc3)ncc2F)cc1` [R945062, N2-(4-Cyanomethyleneoxyphenyl)-5-fluoro-N4-(4-methoxycarbonylmethyleneoxyphenyl)-2,4-pyrimidinediamine] were less than 5.00 and 6.20.
For the molecule `COc1cc(-c2ccccc2)c(C)cc1Nc1ncc(F)c(Nc2cc(C)c(-c3ccccc3)cc2OC)n1` [R926401, N2,N4-Bis[(2-methoxy-5-methyl-4-phenyl)phenyl]-5-fluoro-2,4-pyrimidinediamine], the pIC50 in test [1] and in test [2] was less than 5.00 in each case.
In the case of `Fc1cnc(Nc2ccc3[nH]ncc3c2)nc1Nc1cccc(OC(F)(F)F)c1` [R935364, 5-Fluoro-N2-(indazoline-5-yl)-N4-(3-trifluoromethoxyphenyl)-2,4-pyrimidinediamine], the negative-log IC50 (pIC50) in test [1] is less than 5.00; in test [2] it was 6.25.
Taken in the same sequence, the figures for `CON=C(N)COc1ccc(Nc2nc(Nc3ccc4c(c3)OCCO4)ncc2F)cc1` [R945175, N2-(3,4-Ethylenedioxyphenyl)-5-fluoro-N4-[4-methoxyimino(amino)ethyleneoxyphenyl]-2,4-pyrimidinediamine] were less than 5.00 and 5.78.
For `OCCCn1ncc2cc(Nc3ncc(F)c(Nc4ccc5c(c4)OCCO5)n3)ccc21` [R935302, N4-(3,4-Ethylenedioxyphenyl)-5-fluoro-N2-[1-(3-hydroxypropyl)indazoline-5-yl]-2,4-pyrimidinediamine], in that order: less than 5.00 and 6.72.
`CCOC(=O)c1cnc(N[C@@H](Cc2ccccc2)C(=O)OCC)nc1N[C@@H](Cc1ccccc1)C(=O)OCC` [R926526, 2,4-Bis[N-(L)-phenylalaninylethyl ester]-5-ethoxycarbonylpyrimidine]: the pIC50 in test [1] and in test [2] was less than 5.00 each time.
Regarding `Cc1noc(COc2ccc(Nc3ncc(F)c(Nc4ccc(OC(C)C)cc4)n3)cc2)n1` [R935142, 5-Fluoro-N4-(4-isopropoxyphenyl)-N2-[4-(3-methyl-1,2,4-oxadiazol-5-yl)methyleneoxyphenyl]-2,4-pyrimidinediamine], the pIC50 in test [1] was less than 5.00; in test [2], 6.06.
Taken in the same sequence, the figures for `Cc1ccc(-c2ccccc2)cc1Nc1ncc(C)c(Nc2cc(-c3ccccc3)ccc2C)n1` [R935001, N2,N4-Bis[(2-methyl-5-phenyl)phenyl]-5-methyl-2,4-pyrimidinediamine] were less than 5.00 and less than 5.00.
For `COC(=O)COc1ccc(Nc2ncc(F)c(Nc3ccc(OCC(=O)OC(C)(C)C)cc3)n2)cc1` [R926572], the pIC50 was 5.22 in test [1] and 5.74 in test [2].
For `CCOC(=O)c1cnc(Nc2cccc3cn[nH]c23)nc1Nc1cccc2cn[nH]c12` [R926321, N2,N4-Bis(3-indazol-7-yl)-5-ethoxycarbonyl-2,4-pyrimidinediamine], in that order: less than 5.00 and less than 5.00.
Taken in the same sequence, the figures for `O=C(COc1cccc(Nc2ncc(F)c(Nc3cc(Cl)c(O)c(Cl)c3)n2)c1)N1CCOCC1` [R950187, N4-(3,5-Dichloro-4-hydroxyphenyl)-5-fluoro-N2-[3-(N-morpholino)carbonylmethyleneoxyphenyl]-2,4-pyrimidinediamine] were less than 5.00 and 6.14.
For `COCc1cc(=O)oc2cc(Nc3ncc(F)c(Nc4ccc5c(COC)cc(=O)oc5c4)n3)ccc12` [R926620], in that order: less than 5.00 and 5.08.
For `Oc1cccc(Nc2ncc(F)c(Nc3ccc(OCCN4CCOCC4)cc3)n2)c1` [R926710, 5-Fluoro-N2-(3-hydroxyphenyl)-N4-[4-[2-(N-morpholino)ethyleneoxy]phenyl]-2,4-pyrimidinediamine], the pIC50 was less than 5.00 in test [1] and 5.75 in test [2].
For `CCOC(=O)COc1ccc(Nc2nc(Nc3ccc(OCC(=O)OCC)cc3)c(NC(=O)Nc3ccccc3)c(C(=O)OCC)n2)cc1` [R926571, N2,N4-Bis(4-ethoxycarbonylmethyleneoxyphenyl)-6-ethoxycarbonyl-5-(phenylaminocarbonylamino)-2,4-pyrimidinediamine], in that order: less than 5.00 and less than 5.00.
Taken in the same sequence, the figures for `OCC(O)COc1ccc(Nc2ncc(F)c(Nc3ccc4c(c3)OCCO4)n2)cc1` (stereo not drawn) [R935179, N2-[4-(2,3-Dihydroxypropoxy)phenyl]-N4-(3,4-ethylenedioxypheny)-5-fluoro-2,4-pyrimidinediamine] were less than 5.00 and 6.25.
Taken in the same sequence, the figures for `Oc1cccc(Nc2ncc(F)c(Nc3ccc4cn[nH]c4c3)n2)c1` [R935262, 5-Fluoro-N2-(3-hydroxyphenyl)-N4-(indazoline-6-yl)-2,4-pyrimidinediamine] were less than 5.00 and 6.29.
As for `O=C1COc2ccc(Nc3nc(Cl)ncc3F)nc2N1` [Compound R945298], the pIC50 in test [1] and in test [2] was less than 5.00 throughout.
As to `O=[N+]([O-])c1cccc(Nc2nc(Nc3ccc4c(c3)NCCO4)ncc2F)c1` [R950253], the pIC50 in test [1] was less than 5.00; in test [2], 6.16.
For `O=C(c1cc2cc(Nc3ncc(F)c(Nc4ccc5oc(C(=O)N6CCOCC6)cc5c4)n3)ccc2o1)N1CCOCC1` [R950172, N2,N4-Bis[2-(N-morpholinocarbonyl)benzofurane-5-yl]-5-fluoro-2,4-pyrimidinediamine], in that order: less than 5.00 and 6.01.
Taken in the same sequence, the figures for `Nc1cccc(Nc2nc(Nc3cccc(NC(=O)CCC(N)C(=O)O)c3)ncc2F)c1` (racemic) [R950255, (±)-N4-(3-Aminophenyl)-5-fluoro-N2-[3-(3-carboxy-3-amino)propylenecarbonylaminophenyl]-2,4-pyrimidinediamine] were less than 5.00 and 5.00.
Take `COC(=O)c1cc(COc2cccc(Nc3ncc(F)c(Nc4ccc5c(c4)OCCO5)n3)c2)co1` [R935207, N4-(3,4-ethylenedioxyphenyl)-5-fluoro-N2-[3-(2-methoxycarbonyl-fur-4-yl)methyleneoxyphenyl]-2,4-pyrimidinediamine]: the pIC50 in test [1] and in test [2] was less than 5.00 in each case.
As to `N#CCOc1ccc(Nc2nc(Nc3ccc(OCC(=O)O)cc3)ncc2F)cc1` [R945097, N2-(4-Carboxymethyleneoxyphenyl)-N4-(4-cyanomethyleneoxyphenyl)-5-fluoro-2,4-pyrimidinediamine], the values for the pIC50 in test [1] and in test [2] were less than 5.00 and 5.00, respectively.
Taken in the same sequence, the figures for `OCCCn1ncc2ccc(Nc3ncc(F)c(Nc4ccc5oc(CO)cc5c4)n3)cc21` [R935308, 5-Fluoro-N4-(2-hydroxymethylbenzofur-5-yl)-N2-[1-(3-hydroxypropyl)indazoline-6-yl]-2,4-pyrimidinediamine] were less than 5.00 and 6.56.
Turning to `Cc1nc(COc2cccc(Nc3ncc(F)c(Nc4ccc5oc(C(N)=O)cc5c4)n3)c2)no1` [R945135, N4-(2-Aminocarbonylbenzofuran-5-yl)-5-fluoro-N2-[3-(5-methyl-1,2,4-oxadiazol-3-yl)methyleneoxyphenyl]-2,4-pyrimidinediamine], the values for the pIC50 in test [1] and in test [2] were 5.08 and 6.01, respectively.
Taken in the same sequence, the figures for `Oc1cccc(Nc2ncc(F)c(Nc3ccc4c(c3)OC(F)(F)O4)n2)c1` [R926794, N4-(3,4-Difluoromethylenedioxyphenyl)-5-fluoro-N2-(3-hydroxyphenyl)-2,4-pyrimidinediamine] were less than 5.00 and 5.86.
For `CSc1nc(Nc2ccc3c(c2)OCCO3)nc(Nc2ccc3c(c2)OCCO3)c1Cl` [R926475, N2,N4-Bis(3,4-ethyelenedioxyphenyl)-5-chloro-6-thiomethyl-2,4-pyrimidinediamine], in that order: less than 5.00 and 5.67.
For `CNC(=O)c1cc2cccc(Nc3ncc(F)c(Nc4ccc5c(c4)OCCO5)n3)c2[nH]1` [R926815], in that order: less than 5.00 and 5.93.
For `Cc1cc(Nc2ncc(F)c(Nc3ccc4cn[nH]c4c3)n2)cc(Cl)c1O` [R935264, N2-(3-Chloro-4-hydroxy-3-methylphenyl)-5-fluoro-N4-(indazoline-6-yl)-2,4-pyrimidinediamine], the pIC50 in test [1] was less than 5.00; in test [2], 6.87.
For `CNC(=O)C(C)(C)Oc1cccc(Nc2ncc(F)c(Nc3ccc4c(c3)OCCO4)n2)c1` [R926915, N4-(3,4-Ethylenedioxyphenyl)-5-fluoro-N2-[3-[(N-methylamino)carbonyl-1,1-dimethylmethyleneoxy]phenyl]-2,4-pyrimidinediamine], in that order: less than 5.00 and 5.77.
For `COC(=O)C(C)Oc1ccc(Nc2ccnc(Nc3ccc(OC(C)C(=O)OC)cc3)n2)cc1` (racemic) [R926257, (±)-N2,N4-Bis[4-methoxycarbonyhalpha-methypmethyleneoxyphenyl]-2,4-pyrimidinediamine], in that order: 5.12 and 5.82.
